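1) Cells in 96-well plates. 2) Compound, 48 h, 5 concentrations. 3) Linear interpolation between surrounding doses. 4) Unreached endpoint = highest concentration. GI50 marks 50% less growth. TGI marks complete inhibition of growth.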
Columns and labels:
Assay in all cases: NCI anticancer screen, dose series, 48 h
HT29 colon = system: HT29 colon
NCI-H226 lung = system: NCI-H226 lung
NCI-H460 lung = system: NCI-H460 lung
HCT-116 colon = system: HCT-116 colon
786-0 renal = system: 786-0 renal
IGROV1 ovarian = system: IGROV1 ovarian
T-47D breast = system: T-47D breast
SF-295 CNS = system: SF-295 CNS
HS 578T breast = system: HS 578T breast
MOLT-4 leukemia = system: MOLT-4 leukemia

Structure (SMILES) | TGI (HT29 colon) | TGI (NCI-H226 lung) | TGI (NCI-H460 lung) | TGI (HCT-116 colon) | TGI (786-0 renal) | TGI (IGROV1 ovarian) | TGI (T-47D breast) | TGI (SF-295 CNS) | TGI (HS 578T breast) | TGI (MOLT-4 leukemia) | GI50 (HT29 colon) | GI50 (NCI-H226 lung) | GI50 (NCI-H460 lung) | GI50 (HCT-116 colon) | GI50 (IGROV1 ovarian) | GI50 (T-47D breast) | GI50 (SF-295 CNS) | GI50 (HS 578T breast) | GI50 (MOLT-4 leukemia)
COc1ccc2cc(CNCCCCCCNC(=O)Nc3cccc4ccccc34)ccc2c1 | > 100 µM | > 100 µM | > 100 µM | > 100 µM | > 100 µM | > 100 µM | > 100 µM | > 100 µM | > 100 µM | > 100 µM |  |  |  |  |  |  |  |  | 
CC(NC(CC12CC3CC(CC(C3)C1)C2)C(N)=O)c1ccccc1 (stereo unspecified) | 48.1 µM |  | 36.6 µM | 42.2 µM |  | > 100 µM | > 100 µM | 28.4 µM |  | 39.6 µM |  |  |  |  |  |  |  |  | 
N#CCCN(C(=O)Nc1ccc(NC(=O)N(CCC#N)c2ccccc2)cc1)c1ccccc1 | > 100 µM | > 100 µM | > 100 µM | > 100 µM | > 100 µM | > 100 µM | > 100 µM | > 100 µM | > 100 µM | > 100 µM |  |  |  |  |  |  |  |  | 
CC(=O)CC(O)(C(F)(F)Cl)C(F)(Cl)Cl (stereo unspecified) | > 10 µM | > 10 µM | > 10 µM | > 10 µM | > 10 µM | > 10 µM | > 10 µM | > 10 µM | > 10 µM |  |  |  |  |  |  |  |  |  | 
O=C(OC[C@H]1C[C@H]2C(=O)OCCC[C@H]2O1)c1ccccc1 | > 100 µM | > 100 µM | > 100 µM | > 100 µM | > 100 µM | > 100 µM | > 100 µM | > 100 µM | > 100 µM | > 100 µM |  |  |  |  |  |  |  |  | 
NC1CC(=O)c2c(I)sc(I)c21 (stereo unspecified) | 50.6 µM | 45.6 µM | 66.8 µM | > 49.4 µM | > 53.4 µM | 33.1 µM | > 73 µM | 39.8 µM | 75 µM | 44.8 µM |  |  |  |  |  |  |  |  | 
CCOC(=O)/C(C(=O)c1ccc[nH]1)=C1/CCCN1C | > 100 µM | > 100 µM | > 100 µM | > 100 µM | > 100 µM | > 100 µM | > 100 µM | > 100 µM | > 100 µM | > 100 µM |  |  |  |  |  |  |  |  | 
CCn1c(=O)c2nc(SC)sc2n(-c2ccccc2)c1=S | > 100 µM | > 100 µM | > 100 µM | > 100 µM | > 100 µM | > 100 µM | > 100 µM | > 100 µM | > 100 µM | > 100 µM |  |  |  |  |  |  |  |  | 
CC1(C)OCC(/C=C\C(O)CC2(C)OCCO2)CO1 (stereo unspecified) | > 100 µM | > 100 µM | > 100 µM | > 100 µM | > 100 µM | > 100 µM | > 100 µM | > 100 µM | > 100 µM | > 100 µM |  |  |  |  |  |  |  |  | 
COC(=O)[C@@H]1CN(C(=O)Cc2ccccc2)C(=O)N1 | > 100 µM | > 100 µM | > 100 µM | > 100 µM | > 100 µM | > 100 µM | > 100 µM | > 100 µM | > 100 µM | > 100 µM |  |  |  |  |  |  |  |  | 
C1CCC(CC2CCC(NC3=NCCO3)CC2)CC1 (stereo unspecified) | 17.1 µM | 34.3 µM | 37.1 µM | 30.6 µM | 29.2 µM | 37.1 µM | 54.3 µM | 36 µM | 40.6 µM | 48.1 µM |  |  |  |  |  |  |  |  | 
O=C(O)COc1c(Cl)cc(Cl)c(C(c2c(Cl)cc(Cl)c(OCC(=O)O)c2Cl)C(Cl)(Cl)Cl)c1Cl | 92.6 µM | 64.1 µM | 89.7 µM | > 100 µM | > 100 µM | > 100 µM | > 100 µM | 51.9 µM | > 100 µM | > 100 µM |  |  |  |  |  |  |  |  | 
C#C[C@]1(O)CC[C@H]2[C@@H]3CCC4=C/C(=N/OC(=O)c5cccc6cc7ccccc7nc56)CC[C@@H]4[C@H]3CC[C@@]21CC | > 100 µM | > 100 µM | > 100 µM | > 100 µM | > 100 µM | > 100 µM | > 100 µM |  | > 100 µM | > 100 µM |  |  |  |  |  |  |  |  | 
Cc1csc(NCc2ccc(Cl)cc2)n1 | > 100 µM | > 100 µM |  | > 100 µM | > 100 µM | > 100 µM | > 100 µM | > 100 µM | > 100 µM | > 100 µM |  |  |  |  |  |  |  |  | 
C=CCCCCCCCCCOC1C=CC(O)C(CO)O1 (stereo unspecified) | 46.4 µM | > 100 µM | 63.7 µM | > 100 µM | > 100 µM | 59.1 µM | > 100 µM | > 100 µM | > 100 µM | 86.7 µM |  |  |  |  |  |  |  |  | 
COc1ccc(/C=N/n2c(-c3ccccc3)n[nH]c2=O)c(OC)c1 | 76.3 µM | > 100 µM | > 100 µM | > 100 µM | > 100 µM | > 100 µM | > 100 µM | > 100 µM | 80 µM | > 100 µM |  |  |  |  |  |  |  |  | 
Cc1[nH]c2c(C)c3c([nH]c4ccc(Cl)cc43)c(C)c2c(=O)c1C | 12.8 µM | 24.2 µM | 13.5 µM | 11.3 µM | 33 µM | > 65.5 µM | 16.8 µM | 36.2 µM | > 100 µM | 8.44 µM |  |  |  |  |  |  |  |  | 

Structure (SMILES) | TGI (HT29 colon) | TGI (NCI-H226 lung) | TGI (NCI-H460 lung) | TGI (HCT-116 colon) | TGI (786-0 renal) | TGI (IGROV1 ovarian) | TGI (T-47D breast) | TGI (SF-295 CNS) | TGI (HS 578T breast) | TGI (MOLT-4 leukemia) | GI50 (HT29 colon) | GI50 (NCI-H226 lung) | GI50 (NCI-H460 lung) | GI50 (HCT-116 colon) | GI50 (IGROV1 ovarian) | GI50 (T-47D breast) | GI50 (SF-295 CNS) | GI50 (HS 578T breast) | GI50 (MOLT-4 leukemia)
CC(=O)N(C(=O)CC(=O)N1N=C(C)C(N=Nc2cccc([N+](=O)[O-])c2)C1=O)c1ccc(Cl)cc1 (stereo unspecified) | > 10 µM |  |  | > 10 µM | > 10 µM | > 10 µM | > 10 µM | > 10 µM | > 10 µM |  |  |  |  |  |  |  |  |  | 
O=C(c1ccccc1)c1nn(-c2cccc(Cl)c2)c2nc3nc(-c4ccccc4)cc(=O)n3nc12 | > 25 µM | > 25 µM | > 25 µM | > 25 µM |  | > 25 µM | > 25 µM | > 25 µM | > 25 µM | > 25 µM | > 25 µM | > 25 µM | > 25 µM | > 25 µM | > 25 µM | > 25 µM | > 25 µM | > 25 µM | > 25 µM
COc1ccc2nc(-c3ccc(N)cc3)sc2c1 | > 100 µM | > 100 µM | > 100 µM | > 100 µM | > 100 µM | > 100 µM |  | > 100 µM | > 100 µM | > 100 µM |  |  |  |  |  |  |  |  | 
c1ccc(-c2cc(-c3ccccc3)nc(-c3ccncc3)c2)cc1 |  | > 100 µM |  | > 100 µM | > 100 µM | > 100 µM | > 100 µM | > 100 µM | > 100 µM | > 100 µM |  |  |  |  |  |  |  |  | 
Clc1ccc(Cc2nc3cc4ccccc4cc3[nH]2)cc1Cl | 28.5 µM | 78 µM | > 100 µM | > 100 µM | > 100 µM | 16.7 µM | 39.7 µM |  | 64.5 µM | 4.03 µM |  |  |  |  |  |  |  |  | 
Cc1cc2nc3c(N)nn(CCCN(C)C)c3nc2cc1C | > 100 µM |  | > 100 µM | > 100 µM | > 100 µM |  | > 100 µM | > 100 µM | > 100 µM |  |  |  |  |  |  |  |  |  | 
COc1ccc(C(CC(=O)c2cccs2)C(=O)c2ccc3c(c2)OCO3)cc1 (stereo unspecified) |  |  | > 100 µM | > 100 µM |  | > 100 µM | > 100 µM |  | > 100 µM | > 100 µM |  |  |  |  |  |  |  |  | 
CSC(SC)=C(C#N)C(=O)Nc1ccc(Cl)cc1 | > 100 µM | 85.9 µM | > 100 µM | > 100 µM | > 100 µM |  | 85.3 µM |  | > 100 µM | 89.6 µM |  |  |  |  |  |  |  |  | 
Cc1cccc(NC(=S)NNC(=O)c2cc(-c3ccccc3)nc3ccccc23)c1 | > 100 µM | > 100 µM | 85.9 µM | 48.4 µM | 85.1 µM | > 100 µM | > 100 µM |  | > 100 µM | 84.3 µM |  |  |  |  |  |  |  |  | 
Cc1ccc([N+](=O)[O-])cc1S(=O)(=O)Nc1ccc(C2=NN(S(=O)(=O)c3cc([N+](=O)[O-])ccc3C)C(c3ccccc3O)C2)cc1 (stereo unspecified) | > 100 µM | > 100 µM | > 100 µM | > 100 µM | > 100 µM | > 100 µM | > 100 µM | > 100 µM |  | > 100 µM |  |  |  |  |  |  |  |  | 
C=CCSC1=N/C(=C\c2ccc(C)cc2)C(=O)N1CC=C | 34.1 µM |  | > 100 µM | 67.4 µM | 58.4 µM | > 100 µM | 78.7 µM | > 100 µM | > 100 µM |  |  |  |  |  |  |  |  |  | 
CCN(CC)C(=O)N[C@@H](CC(C)C)C(=O)NC | > 100 µM |  | > 100 µM | > 100 µM | > 100 µM | > 100 µM | > 100 µM | > 100 µM | > 100 µM | > 100 µM |  |  |  |  |  |  |  |  | 
CN(CCNC(=O)c1nn(C)c2c1Cc1ccccc1-2)CCNC(=O)c1nn(C)c2c1Cc1ccccc1-2 | 33.5 µM | 34.5 µM | 31.7 µM | 28.9 µM | 27.7 µM | 27.5 µM | 91.5 µM | 30.8 µM |  | 31.2 µM |  |  |  |  |  |  |  |  | 
COc1cc2c(cc1C)NC(=O)/C2=C/c1c(Cl)[nH]c2ccccc12 | 14.4 µM |  | 17.1 µM | 17 µM | 20 µM | 16.8 µM | 34.1 µM | 5.52 µM | 28.7 µM | 31.3 µM |  |  |  |  |  |  |  |  | 
C[N+]1(CC[N+]2(C)CCCC2c2cccnc2)CCCC1c1cccnc1 (stereo unspecified) | > 100 µM |  | > 100 µM | > 100 µM | 90.7 µM | > 100 µM | > 100 µM | > 100 µM | > 100 µM | > 100 µM |  |  |  |  |  |  |  |  | 
COc1cc2c(c(O)c1OC)C(O)C1CCC(=O)N1C2c1ccc2c(c1)OCO2 (stereo unspecified) | > 100 µM | > 100 µM | > 100 µM | > 100 µM | > 100 µM | > 100 µM | > 100 µM | > 100 µM |  | > 100 µM |  |  |  |  |  |  |  |  | 
CC(C)C(Sc1nc(N)nc2nc[nH]c12)C(=O)O (stereo unspecified) | > 100 µM | > 100 µM | > 100 µM | > 100 µM | > 100 µM | > 100 µM | > 100 µM | > 100 µM | > 100 µM |  |  |  |  |  |  |  |  |  | 
